Consider 1 compound from paper PMC9798707, “Targeting SOST using a small-molecule compound retards breast cancer bone metastasis” (Molecular Cancer, 2022).

The Kd is the free concentration of one partner at which half of the binding sites on the other are occupied at equilibrium, for simple one-to-one binding. Read a high Kd as lower affinity. The kon is the second-order rate constant of association.

The test addresses T1, SOST (Homo sapiens, UniProt Q9BQB4).
T1 construct: commercial recombinant SOST (SinoBio 10593-H07H), biotinylated and immobilized on Octet SSA biosensors
T1 sequence (Q9BQB4 24-213): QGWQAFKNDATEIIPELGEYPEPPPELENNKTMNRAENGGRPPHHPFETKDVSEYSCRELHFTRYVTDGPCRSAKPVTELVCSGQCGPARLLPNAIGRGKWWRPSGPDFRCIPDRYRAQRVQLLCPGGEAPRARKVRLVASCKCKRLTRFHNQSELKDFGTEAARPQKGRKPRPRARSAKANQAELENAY
In words: biochemical. On the set-up: biolayer interferometry (Octet K2), compound binding to immobilized biotinylated SOST, multi-concentration. As to conditions: multi-concentration BLI, 30 C. As for the experimental part:
The affinity of S6 binding to SOST was measured, as described previously using an Octet K2 instrument (ForteBio). All assays were run at 30 °C with continuous shaking of 1000 RPM using the assay buffer of 0.1% BSA, 0.01% Tween-20 and 1% DMSO in PBS. SOST (10,593-H07H, SinoBio, Beijing, China) at 0.15 mg/ml was dissolved in sterile water, biotinylated and immobilized onto the Octet SSA biosensors. S6 (C29H24N6O2S, molecular weight 520.62, Chemdiv, USA) was dissolved in PBS and adjusted to different concentrations for BLI. After each round of association and disassociation, the SOST-contained sensors were washed with the assay buffer for 10 min to remove nonspecifically bound molecules. Raw kinetic data were obtained. The kon and koff values were analyzed using the software provided and the Kd values were calculated, based on double reference subtraction. We next sought to model the interaction of SOST with STAT3 and identify its inhibitors from a small-molecule chemical library (Fig. 4A). […] Subsequently, we performed virtual screening for compounds that might block the binding of SOST to STAT3 (Fig. 4C). We screened approximately 120,000 compounds and obtained 38 candidates. We tested single-concentration of them in BLI test. Data from 35 of these compounds are shown in Figure S4 and SI Table 1, except for compounds 2, 10, and 25, which could not be detected due to poor solubility. […] compounds (6, 11, 12, 17, 22, 24, 34, 38) were screened by multi-concentration gradients to obtain R2, Kd, kdis, and response parameters (Fig. 4D-E, Fig. S5 and SI Table 2). Four compounds, 6, 11, 28, and 34, were selected for drug sensitivity testing (Fig. 4F and Fig. S5). […] S6 boudn to SOST with a high affinity (Fig. 4G).

`Cc1ccc(-c2nnc(Nc3ccccc3)c3ccccc23)cc1S(=O)(=O)NCc1nc2ccccc2[nH]1` [compound 6, S6] yielded a Kd of 399 µM and a kon of 765 M⁻¹ s⁻¹. Also, the koff (read-out: kdis) worked out at 0.305 s⁻¹.
